Laboratory results taken from patent EP0526936A2, “Cholesterol-lowering agents” (MERCK & CO. INC., priority 1991, dated 1993).

Key:
squalene synthase [1] = target: T1, squalene synthase (Saccharomyces cerevisiae, UniProt P29704); assay: Squalene synthase assay, yeast enzyme; type: biochemical, S. cerevisiae W303-1A; conditions: yeast enzyme preparation; 12 min preincubation, 12 min reaction at 30 °C; read-out: Squalene Synthase Inhibition IC50 Yeast Enzyme (converted)
T1 construct: The pellet fractions were suspended at 10-20 mg/ml protein in breakage buffer containing 25% glycerol; endogenous in cells; host or cells: S. cerevisiae W303-1A
T1 sequence (P29704 1-444): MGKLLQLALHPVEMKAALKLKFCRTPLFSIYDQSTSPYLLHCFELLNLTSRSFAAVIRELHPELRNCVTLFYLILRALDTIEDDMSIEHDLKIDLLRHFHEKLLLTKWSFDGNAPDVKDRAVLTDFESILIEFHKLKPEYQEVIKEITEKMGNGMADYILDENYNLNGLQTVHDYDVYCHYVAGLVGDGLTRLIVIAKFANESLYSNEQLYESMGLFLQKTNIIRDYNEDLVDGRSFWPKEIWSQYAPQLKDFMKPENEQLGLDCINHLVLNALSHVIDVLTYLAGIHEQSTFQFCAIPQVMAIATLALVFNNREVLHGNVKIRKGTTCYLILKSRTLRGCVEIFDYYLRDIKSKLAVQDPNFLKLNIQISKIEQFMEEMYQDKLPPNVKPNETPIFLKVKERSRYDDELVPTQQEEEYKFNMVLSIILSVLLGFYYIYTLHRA
Experimental: (§1) The intrinsic squalene synthase inhibitory activity of representative compounds of this invention was measured by the standard in vitro protocol described below:
S. cerevisiae W303-1A (MATa ade2-1 canl-100 his3-11,15 leu2-3,112 trp1-1 ura3-1) was grown at 30 ° C for 24 hours in YPD medium ([…], 2% glucose) supplemented with 20 µg/mL adenine. The cells were washed and resuspended in a minimal volume of breakage buffer (100 mM KP04, pH 7.4, 3 mM DTT, 1 mM PMSF). The cells were added to the small chamber of the Bead-Beater Cell Disrupter (Biospec Products, Bartlesville, OK) containing 100 g of 0.5 mm glass beads. Buffer was added to fill the chamber. The sealed chamber was packed in ice and processed for 4 cycles of 30 sec with 2 min. cooling between cycles. Cell breakage was determined to be >90% by phase-contrast microscopy. The glass beads were removed by Whatman filter paper and the filtrate collected into an ice- immersed filter flask. The extract was centrifuged at 1500 x g for 10 min at 4°C. The pellet (P1) containing unbroken cells and cell walls was discarded. The supernatant (S1) was centrifuged at 30000 x g for 30 min at 4°C. The pellet (P2) contained about two-thirds of the total squalene synthase activity. The supernatant (S2) can be centrifuged at 100,000 x g for 60 min at 4°C to pellet the remaining activity (P3). The pellet fractions were suspended at 10-20 mg/ml protein in breakage buffer containing 25% glycerol. The activity was stable for several months at -80 ° C.
(§2) Reactions were performed in 1.2 mL polypropylene tube strips of eight. […] The reaction product was extracted with 0.4 mL heptane containing 0.4 µL carrier squalene 0.2 mL of the heptane extract was counted by liquid scintillation. […]
(§3) Percent inhibition is calculated by the formula: [formula]
lC50 values were determined by plotting the log of the concentration of the test compound versus the percentage inhibition. […]

squalene synthase [2] = target: T2, squalene synthase (Homo sapiens, UniProt P37268); assay: Squalene synthase assay, HepG2 cell enzyme; type: biochemical; conditions: HepG2 enzyme preparation; 12 min preincubation, 12 min reaction at 30 °C; read-out: Squalene Synthase Inhibition IC50 HepG2 Enzyme (converted)
T2 construct: The HepG2 enzyme preparation was centrifuged at 34,000 rpm to separate the cytosol and microsomal enzymes; host or cells: HepG2
T2 sequence (P37268 1-417): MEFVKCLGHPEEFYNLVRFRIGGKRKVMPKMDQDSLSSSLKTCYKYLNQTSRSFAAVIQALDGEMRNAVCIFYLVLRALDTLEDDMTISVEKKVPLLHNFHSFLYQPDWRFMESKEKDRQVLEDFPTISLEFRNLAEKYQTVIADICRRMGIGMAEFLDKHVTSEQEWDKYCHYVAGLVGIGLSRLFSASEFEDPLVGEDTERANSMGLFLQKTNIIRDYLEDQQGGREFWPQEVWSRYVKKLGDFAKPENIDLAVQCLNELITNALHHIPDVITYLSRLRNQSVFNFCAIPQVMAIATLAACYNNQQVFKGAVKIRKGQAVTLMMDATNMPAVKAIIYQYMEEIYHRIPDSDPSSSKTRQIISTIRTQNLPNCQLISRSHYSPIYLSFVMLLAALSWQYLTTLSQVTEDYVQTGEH
Experimental: as §1
1. SOURCE: HEPG2 CELL LINE (Liver, hepatoblastoma, Human) ATCC No. HB 8065
Culture Medium: Minimum essential medium (MEM) with non-essential amino acids, sodium pyruvate, and 10% fetal bovine serum. The medium was changed twice weekly. […] The growth medium was prepared as listed below.
SUBCULTURE PROCEDURE: The medium was removed and washed with PBS (Phosphate-Buffered Saline 15.6 mM, pH 7.0). Fresh trypsin (0.25%)-EDTA (0.02%) with Hank's Balanced Salt solution was added and the flask was allowed to stand for a minute before the trypsin solution was removed. The flask was incubated at 370 C until cells detached. Fresh medium was added and the cells were dispersed and dispensed into new flasks. Subcultivation ratio: 1:6.
PREPARATION OF DELIPIDATED SERUM: Fetal calf serum (100 ml) and CAB-O-Sil (2 grams) were stirred overnight at 4°C and centrifuged at 16,000 rpm for 5 hrs. The supernantant was filtered and the serum was stored at 4 C.
48 hrs. prior to harvest, cells grown in MEM with 10% Fetal Calf serum were switched to MEM with 10% delipidated serum.
HARVEST: The medium was removed and the cells were washed with PBS. Fresh trypsin (0.25%)-EDTA (0.02%) with Hanks' Balanced Salt solution was added and allowed to stand and removed. The flask was incubated at 37 C until the cells detached. MEM medium (6 mL/flask) was added to suspend cells and combined into a centrifuge tube. […] Cells were counted ([…] yield from 18 flasks (75 cm^2)), and resuspended in 10 mL of 50mM HEPES (N-[2-Hydroxyethyl]piperazine-N'-[2-ethane-sulfonic acid]) containing 5mM MgCI2, 2mM MnCI2, 10mM DTT, pH 7.5 (enzyme suspension buffer). […]
as §2
Percent inhibition is calculated by the formula: [formula] […]

squalene synthase [3] = target: T3, squalene synthase (Rattus norvegicus, UniProt Q02769); assay: Squalene synthase assay, rat liver microsomes; type: biochemical, rats; conditions: [4-14C]farnesyl-pyrophosphate, 20 minutes at 30 °C
T3 construct: from tissue; host or cells: liver microsomes of male Charles River CD rats fed 0.1% lovastatin
T3 sequence (Q02769 1-416): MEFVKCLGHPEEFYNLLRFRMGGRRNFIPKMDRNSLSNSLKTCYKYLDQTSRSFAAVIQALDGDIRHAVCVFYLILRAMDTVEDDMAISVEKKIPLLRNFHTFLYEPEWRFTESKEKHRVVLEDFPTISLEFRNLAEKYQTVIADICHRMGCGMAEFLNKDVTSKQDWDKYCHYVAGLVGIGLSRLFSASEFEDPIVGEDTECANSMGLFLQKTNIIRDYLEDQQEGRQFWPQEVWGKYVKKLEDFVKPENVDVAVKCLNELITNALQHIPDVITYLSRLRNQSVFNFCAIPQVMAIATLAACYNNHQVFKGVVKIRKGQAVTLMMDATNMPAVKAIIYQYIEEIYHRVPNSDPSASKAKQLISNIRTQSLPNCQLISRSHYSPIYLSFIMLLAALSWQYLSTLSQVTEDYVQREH
Experimental: Alternatively, the intrinsic squalene synthase inhibitory activity of the compounds formed in the fermentation of the microorganisms of the present invention may be measured by the standard in vitro protocol described below:
Male, CHARLES RIVER@ CD rats (120 to 150 g) were fed a diet containing 0.1% lovastatin for 4 days. The livers from these rats were homogenized in 5 volumes (mL/g) of ice cold 50 mM HEPES (4-(2-hydroxyethyl)-1-piperazine-ethanesulfonic acid), 5 mM EDTA(ethylenediaminetetraacetic acid) pH 7.5 with a Potter-Elvehjem type tissue grinder. The homogenate was centrifuged twice at 20,000 x g for 15 min. at 4°C, discarding the pellet each time. The supernatant was then centrifuged at 100,000 x g for 1 hr at 4°C. The resulting microsomal pellet was resuspended in a volume of the above homogenizing buffer equal to one-fifth the volume of the original homogenate. This microsomal preparation has a protein concentration of about 7 mg/mL. The microsomal suspensions were stored in aliquots at -70 °C. Squalene synthase activity in these aliquots is stable for a least several months. […]
This assay mix was degassed under a vacuum and flushed with N2. […] Ten mL of scintillation fluid was added to the heptane solution and radioactivity was determined by liquid scintillation counting.
as §3

Farnesyl Transferase = Farnesyl Transferase (Homo sapiens, UniProt P49356); assay: Farnesyl-transferase assay (inhibition of Ras farnesylation in vitro); type: biochemical; conditions: ras-CVLS 3 μM, 60 min at room temperature
Experimental: FARNESYL-TRANSFERASE ASSAY
100 µL of 0.5 M DTT was added to 900 µL of 1.1 M HEPES, pH 7.5 and 55.5 mM MgCl2 to yield a 10X buffer consisting of 1.0 M HEPES, pH 7.5, 50 mM MgCl2 and 50 mM DTT.
The reaction mix was prepared as below:
A Blank reaction mix was also prepared with the negative control ras-protein, and the Total/Sample reaction mix received the ras-CVLS. The same volumes were used to prepare the Blank reaction mix as those in Table 1.
The farnesyl trasferase solution was prepared as shown below. The farnesyl transferase mix was prepared right before use.
• i. The assay volume was 100 µL, the volume of sample to be tested was 5 µL and the time of incubation is 60 min at room temperature. • ii. The TECAN 8000/505, an automatic pipetting station, added 50 µL of water plus 5 µL of sample to the assay tubes. • iii. The ras-CVLS reaction mix (20 µL) was manually added to totals and unknowns. The negative control ras-protein reaction mix (20 µL) was manually added to the blank tubes. • iv. The farnesyl transferase mix (25 µL) was manually added to all tubes to initiate the reaction and the assay tubes were kept at room temperature for 60 min. • v. The assay was stopped placing the assay tubes in an ice bath for 5 minutes. • vi. 1.0 mL of 1.0 M HCI in 100% ethanol was then added to each tube. The assay tubes (uncapped) were incubated at 37 ° C for 60 min. to facilitate the hydrolysis of the FPP. • vii. Assay tubes were harvested through a TOMTEC 96-well harvestor (6 x 16 with extended tips, or SKATRON cell harvestor) onto LKB double thickness filter mats. • viii. The cell harvestor was adjusted so that each well was washed with 10 mL of 100% ethanol. • ix. Filter mats were baked in microwave oven for 6-8 min. to dry the filtermats. • x. The filter mats were placed in counting bags, 30 mL of LKB ,8-scint cocktail was added and the filter mats were counted for 120 sec. in the LKB β-plate counter.
Percent inhibition was calculated according to the following equation: [formula] […]

IC50 (squalene synthase [1]) [µM] | IC50 (squalene synthase [2]) [µM] | IC50 (squalene synthase [3]) [µM] | IC50 (Farnesyl Transferase) [µM] | Structure (SMILES)
12.7 | 70.3 | 15 | 8 | CCCCCCCC(=O)CCCCCC/C=C/C(C(=O)NC(Cc1ccc(O)cc1)C(=O)O)C(O)(CC(=O)O)C(=O)O (stereo not shown) [Compound A]
1.74 | 33.5 | – | 4.5 | CCCCCCCC(=O)CCCCCC/C=C/C(C(=O)NC(Cc1ccccc1)C(=O)O)C(O)(CC(=O)O)C(=O)O (stereo not shown) [Compound C]
0.358 | 0.472 | – | 3.3 | CCCCCCCC(=O)CCCCCC/C=C/C(C(=O)NC(Cc1c[nH]c2ccccc12)C(=O)O)C(O)(CC(=O)O)C(=O)O (stereo not shown) [Compound D]
